This note sets out measurements from patent publication US8507536B2, “Gonadotropin-releasing hormone receptor antagonists and methods relating thereto” (Neurocrine Biosciences, Inc., priority 2007, dated 2013).

In this test the target is T1, human GnRH receptor (Homo sapiens, UniProt P30968).
T1 construct: expressed in transfected cells; membrane preparations
T1 sequence (P30968 1-328): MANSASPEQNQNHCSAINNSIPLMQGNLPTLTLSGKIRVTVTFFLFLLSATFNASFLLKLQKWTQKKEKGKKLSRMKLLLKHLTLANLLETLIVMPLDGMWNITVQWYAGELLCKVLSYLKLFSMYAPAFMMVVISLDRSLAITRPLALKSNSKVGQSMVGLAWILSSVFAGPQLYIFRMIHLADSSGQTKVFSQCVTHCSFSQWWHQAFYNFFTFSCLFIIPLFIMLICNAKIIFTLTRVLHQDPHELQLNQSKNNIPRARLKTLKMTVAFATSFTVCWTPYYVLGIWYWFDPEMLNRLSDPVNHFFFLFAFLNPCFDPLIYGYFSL
As to the kind of experiment: peptide competitive human receptor binding assays (radioligand displacement). Conditions: tested in one or more of the peptide competitive human receptor binding assays. How it is done:
HEK293 cells stably transfected with the human GnRH receptor are grown for two days after achieving confluence then are harvested by striking tissue culture flasks against a firm surface. Cells are collected by centrifugation at 1000 g for […]. Cell pellets are resuspended in 5% sucrose and homogenized using a polytron homogenizer for two 15 second homogenization steps. Cell homogenates are then centrifuged for 5 minutes at 3000 g to remove nuclei and the supernatant subsequently centrifuged for 30 minutes at 44,000 g to collect the membrane fraction. The membrane pellet is resuspended in GnRH binding buffer (10 mM HEPES, pH 7.5, 150 mM NaCl and 0.1% BSA) and aliquots immediately snap-frozen in liquid nitrogen and stored at −80° C. Protein content of the membrane suspension is determined using the Bio-Rad protein assay kit (Bio-Rad).
RBL cells stably transfected with the human GnRH receptor are grown to 80% confluency prior to harvesting. The cells are incubated at 37° C. for 10 min in 0.5 mM EDTA/PBS (Ca^++, Mg^++ free), and are dislodged from the plate by gentle rapping of the flasks. Cells are collected and pelleted by centrifugation at 1000 g for 5 minutes. Cell pellets are resuspended in buffer (DPBS supplemented with 10 mM MgCl2, 2 mM EGTA, pH=7.4), and cell lysis is performed using a pressure cell and applying N2 at a pressure of 900 psi for 30 min at 4° C. Unbroken cells and larger debris were removed by centrifugation at 1200 g for 10 min at 4° C. The cell membrane supernatant is then centrifuged at 45,000 g and the resulting membrane pellet is resuspended in assay buffer and homogenized on ice using a tissue homogenizer. Protein concentrations are determined using the Coomassie Plus Protein Reagent kit. Membranes are aliquoted and stored at −80° C. until ready for use.
Radioligand binding displacement assays using the peptide radioligands are performed in buffer containing 10 mM HEPES, 150 mM NaCl and 0.1% BSA, pH=7.5. Radioligand binding assays employing the use of [^3H]-1-(2,6-difluorobenzyl)-3-[(2R)-amino-2-phenethyl]-5-(2-fluoro-3-methoxyphenyl)-6-methyluracil (here the 3-methoxy group is tritiated) are run in buffer containing 50 mM Tris, 150 mM NaCl, 5 mM MgCl2, 0.01% saponin and 0.5 mM EDTA, pH=7.5. Radioligand displacement assays are performed by incubating radioligand ([^125I-Tyr^5, DLeu^6, NMeLeu^7, Pro^9-NEt]GnRH (0.1 nM), [His^5, ^125I-DTyr^6]GnRH (0.2 nM) (31) or [^3H]-1-(2,6-difluorobenzyl)-3-[(2R)-amino-2-phenethyl]-5-(2-fluoro-3-methoxyphenyl)-6-methyluracil (1 nM)), unlabeled competitors at concentrations ranging from 0.3 pM to 10 μM, and membranes for 2 hrs at rt. 10 to 20 μg protein/well is used from membrane preparations for human, monkey and rabbit GnRH receptor. 5 μg/well and 60 μg/well of membranes are used for rat and dog GnRH receptors, respectively. Binding assays are performed in either Millipore 96-well GF/C filtration plates (for ([^125I-Tyr^5, DLeu^6, NMeLeu^7, Pro^9-NEt]GnRH assays), or in 96 well low binding plates, which are subsequently filtered onto GF/C Unifilters. Filters are pretreated with 0.5% PEI for 30 min prior to use. Reactions are terminated by rapid vacuum filtration, and the filters are washed twice with 250 μL ice cold PBS pH=7.4 (0.01% Tween-20 is included in wash media for [His^5, ^125I-DTyr^6]GnRH and [^3H]-1-(2,6-difluorobenzyl)-3-[(2R)-amino-2-phenethyl]-5-(2-fluoro-3-methoxyphenyl)-6-methyluracil radioligands). The filters are dried, and the Millipore filters are monitored for radioactivity using a Cobra II gamma counter (Perkin Elmer Life Sciences). For assays filtered onto the GF/C Unifilter plates, 50 μL scintillation fluid is added to each filter, and radioactivity is monitored using a TopCount NXT. For iodinated radioligands, total radioligand is monitored on a gamma counter, and for the tritiated radioligand, total radioligand is monitored using a Perkin Elmer 1600TR liquid scintillation counter. […]

The structures appear in SMILES notation.

Take `Cc1cc(Cl)ncc1-c1cc(S(=O)(=O)N2CCCCc3ccccc32)ccc1Cl` [Example 4-1, 1-[4-chloro-3-(6-chloro-4-methyl-pyridin-3-yl)-benzenesulfonyl]-2,3,4,5-tetrahydro-1H-1-benzazepine]: the inhibition constant Ki (commonly the equilibrium dissociation constant of an inhibitor or competing ligand from its target) was no more than 100 nM.
With `Cc1cc(Cl)ncc1-c1cc(S(=O)(=O)N2CCCC(=O)c3ccccc32)ccc1Cl` [Example 4-2], the Ki was no more than 100 nM.
In the case of `Cc1cc(Cl)ncc1-c1cc(S(=O)(=O)N2CCCc3ccccc32)ccc1Cl` [Example 4-3] it was no more than 100 nM; in that of `Cc1cc(Cl)ncc1-c1cc(S(=O)(=O)N2CCOc3ccccc32)ccc1Cl` [Example 4-4], no more than 100 nM; in that of `Cc1cc(Cl)ncc1-c1cc(S(=O)(=O)N2CCC(C)(C)c3ccccc32)ccc1Cl` [Example 4-5], no more than 100 nM.
With `Cc1cc(Cl)c(-c2cc(S(=O)(=O)N3CCCc4ccccc43)ccc2Cl)cn1` [Example 4-8], the Ki was no more than 100 nM.
In the case of `Cc1cc(C(F)(F)F)ncc1-c1cc(S(=O)(=O)N2CCCCc3ccccc32)ccc1Cl` [Example 4-9] it was no more than 100 nM.
Compound `Cc1cc(C(F)(F)F)ncc1-c1cc(S(=O)(=O)N2CCCc3ccccc32)ccc1Cl` [Example 4-10] returned a Ki of no more than 100 nM.
In the case of `Cc1cc(C(F)(F)F)ncc1-c1cc(S(=O)(=O)N2CCOc3ccccc32)ccc1Cl` [Example 4-11], the Ki was no more than 100 nM.
`N#Cc1cc(C(F)(F)F)ncc1-c1cc(S(=O)(=O)N2CCCCc3ccccc32)ccc1Cl` [Example 4-13] came in with a Ki of no more than 100 nM.
Regarding `Cc1cccc2c1N(S(=O)(=O)c1ccc(Cl)c(-c3cnc(C(F)(F)F)cc3C#N)c1)CCC2` [Example 4-14], the Ki is no more than 100 nM.
Consider `N#Cc1cc(C(F)(F)F)ncc1-c1cc(S(=O)(=O)N2CCOc3ccccc32)ccc1Cl` [Example 4-15], for which the Ki is no more than 100 nM.
In the case of `CC1(C)CCN(S(=O)(=O)c2ccc(Cl)c(-c3cnc(C(F)(F)F)cc3C#N)c2)c2ccccc21` [Example 4-16] it was no more than 100 nM.
The same measure for `N#Cc1cc(C(F)(F)F)ncc1-c1cc(S(=O)(=O)N2CCOCc3ccccc32)ccc1Cl` [Example 4-17]: no more than 100 nM; for `N#Cc1cc2ccccc2nc1-c1cc(S(=O)(=O)N2CCCCc3ccccc32)ccc1Cl` [Example 4-18]: no more than 100 nM.
Take `CC1(C)CCN(S(=O)(=O)c2ccc(Cl)c(-c3nc4ccccc4cc3C#N)c2)c2ccccc21` [Example 4-19]: the Ki is no more than 100 nM.
In turn, `Cc1cccc2c1N(S(=O)(=O)c1ccc(Cl)c(-c3cnc(C(F)(F)F)cc3C#N)c1)CCCO2` [Example 4-20] registered a Ki of no more than 100 nM.
Take `Cc1cc(Cl)ncc1-c1cc(S(=O)(=O)N2CCCOc3ccccc32)ccc1Cl` [Example 4-23]: the Ki was no more than 100 nM.
The same measure for `N#Cc1cc(C(F)(F)F)ncc1-c1cc(S(=O)(=O)N2CCCOc3ccccc32)ccc1Cl` [Example 4-24]: no more than 100 nM; for `O=S(=O)(c1ccc(Cl)c(-c2cnc(Cl)cc2Cl)c1)N1CCCCc2ccccc21` [Example 5-1, 1-[4-Chloro-3-(4,6-dichloro-pyridin-3-yl)-benzenesulfonyl]-2,3,4,5-tetrahydro-1H-1-benzazepine]: no more than 100 nM.
In turn, `COc1ccccc1N(C)S(=O)(=O)c1ccc(Cl)c(-c2cnc(Cl)cc2Cl)c1` [Example 5-2] returned a Ki of no more than 100 nM.
Compound `O=S(=O)(c1ccc(Cl)c(-c2cnc(Cl)cc2Cl)c1)N1CCCc2ccccc21` [Example 5-3] had a Ki of no more than 100 nM.
`O=S(=O)(c1ccc(Cl)c(-c2cnc(Cl)cc2Cl)c1)N1CCOc2ccccc21` [Example 5-4] had a Ki of no more than 100 nM.
`CC1(C)CCN(S(=O)(=O)c2ccc(Cl)c(-c3cnc(Cl)cc3Cl)c2)c2ccccc21` [Example 5-5] gave a Ki of no more than 100 nM.
In the case of `CC1CCc2ccccc2N1S(=O)(=O)c1ccc(Cl)c(-c2cnc(Cl)cc2Cl)c1` (stereo not shown) [Example 5-6] it was no more than 100 nM; in that of `CC(C)(C)OC(=O)CCCOc1cc(Cl)c(-c2cnc(C(F)(F)F)cc2C#N)cc1S(=O)(=O)N1CCCCc2ccccc21` [Example 6-1, 4-[5-chloro-4-(4-cyano-6-trifluoromethyl-pyridin-3-yl)-2-(2,3,4,5-tetrahydro-benzo[b]azepine-1-sulfonyl)-phenoxy]-butyric acid tert-butyl ester], no more than 100 nM; in that of `CC(C)(C)OC(=O)COc1cc(Cl)c(-c2cnc(C(F)(F)F)cc2C#N)cc1S(=O)(=O)N1CCCCc2ccccc21` [Example 6-5], no more than 100 nM.
`N#Cc1cc(C(F)(F)F)ncc1-c1cc(S(=O)(=O)N2CCCCc3ccccc32)c(OCCCC(=O)O)cc1Cl` [Example 7-1, 4-[5-chloro-4-(4-cyano-6-trifluoromethyl-pyridin-3-yl)-2-(2,3,4,5-tetrahydro-benzo[b]azepine-1-sulfonyl)-phenoxy]-butyric acid] had a Ki of no more than 100 nM.
Consider `Cc1cc(C(F)(F)F)ncc1-c1cc(S(=O)(=O)N2CCCCc3ccccc32)c(OCCCC(=O)O)cc1Cl` [Example 7-2], for which the Ki is no more than 100 nM.
For the compound `Cc1cc(C#N)ncc1-c1cc(S(=O)(=O)N2CCCCc3ccccc32)c(OCCCC(=O)O)cc1Cl` [Example 7-3], the inhibition constant (Ki) is no more than 100 nM.
As for `N#Cc1cc2ccccc2nc1-c1cc(S(=O)(=O)N2CCCCc3ccccc32)c(OCCCC(=O)O)cc1Cl` [Example 7-4], the Ki is no more than 100 nM.
With `N#Cc1cc(C(F)(F)F)ncc1-c1cc(S(=O)(=O)N2CCCCc3ccccc32)c(OCC(=O)O)cc1Cl` [Example 7-5], the Ki is no more than 100 nM.
`N#Cc1cc(C(F)(F)F)ncc1-c1cc(S(=O)(=O)N2CCCCc3ccccc32)c(O)cc1Cl` [Example 8-2] showed an inhibitory constant (Ki) of no more than 100 nM.
For the compound `N#Cc1cc2ccccc2nc1-c1cc(S(=O)(=O)N2CCCCc3ccccc32)c(O)cc1Cl` [Example 8-3], the inhibitory constant (Ki) was no more than 100 nM.
The same measure for `Cc1cc(C#N)ncc1-c1cc(S(=O)(=O)N2CCCCc3ccccc32)c(OCCCO)cc1Cl` [Example 9-1, 5-[2-chloro-4-(3-hydroxy-propoxy)-5-(2,3,4,5-tetrahydro-benzo[b]azepine-1-sulfonyl)-phenyl]-4-methyl-pyridine-2-carbonitrile]: no more than 100 nM; for `N#Cc1cc(C(F)(F)F)ncc1-c1cc(S(=O)(=O)N2CCCCc3ccccc32)c(OCCCO)cc1Cl` [Example 9-2, 5-[2-Chloro-4-(3-hydroxy-propoxy)-5-(2,3,4,5-tetrahydro-benzo[b]azepine-1-sulfonyl)-phenyl]-2-trifluoromethyl-isonicotinonitrile]: no more than 100 nM; for `Cc1cc(C#N)ncc1-c1cc(S(=O)(=O)N2CCCCc3ccccc32)c(OCCC(=O)O)cc1Cl` [Example 10-1, 3-[5-chloro-4-(6-cyano-4-methyl-pyridin-3-yl)-2-(2,3,4,5-tetrahydro-benzo[b]azepine-1-sulfonyl)-phenoxy]-propionic acid]: no more than 100 nM.
